Data set [1] deals with CDK5/p25 (Homo sapiens, UniProt Q00535). Kind of data set: CDK5/p25 kinase assay (histone H1, 15 μM ATP). It is filed as biochemical, mammalian. Particulars: Table 1. The protocol: (§1) Blank values were subtracted and activities calculated as pmoles of phosphate incorporated for a 10 min. incubation. […] Controls were performed with appropriate dilutions of dimethylsulfoxide. In a few cases phosphorylation of the substrate was assessed by autoradiography after SDS-PAGE.
CDK5/p25 was reconstituted by mixing equal amounts of recombinant mammalian CDK5 and p25 expressed in E. coli as GST (Glutathione-S-transferase) fusion proteins and purified by affinity chromatography on glutathione-agarose (p25 is a truncated version of p35, the 35 kDa CDK5 activator). Its activity was assayed in buffer C as described for CDK1/cyclin B.
(§2) Kinases were assayed as above described in the presence of increasing concentrations of aloisines.

The target of data set [2] is CDK1/cyclin B. The experiment in a line: CDK1/cyclin B kinase assay (histone H1, 15 μM ATP). It is filed as biochemical, starfish (Marthasterias glacialis). Particulars: 15 μM ATP, Table 1. The procedure:
as §1
CDK1/cyclin B was extracted in homogenisation buffer from M phase starfish (Marthasterias glacialis) oocytes and purified by affinity chromatography on p9^CKShs1-sepharose beads, from which it was eluted by free p9^CKShs1. […] ATP (3,000 Ci/mmol; 1 mCi/ml) in a final volume of 30 μl. After 10 min. incubation at 30° C., 25 μl aliquots of supernatant were spotted onto P81 phosphocellulose papers and treated as described above.
as §2

In data set [3] the target is GSK-3α/β. Kind of data set: GSK-3 kinase assay (GS-1 peptide, 15 μM ATP). The class given is biochemical, porcine. Particulars: read-out: IC50 GSK-3. The procedure: as §1
GSK-3α/β was either purified from porcine brain or expressed in and purified from insect Sf9 cells. […] ATP (3,000 Ci/mmol; 1 mCi/ml) in a final volume of 30 μl. After 30 min. incubation at 30° C., 25 μl aliquots of supernatant were spotted onto 2.5×3 cm pieces of Whatman P81 phosphocellulose paper, and, 20 sec. later, the filters were washed five times (for at least 5 min. each time) in a solution of 10 ml phosphoric acid/liter of water. The wet filters were counted in the presence of 1 ml ACS (Amersham) scintillation fluid.
as §2

Where a name gives a salt, the structure may show the parent alone. Read-outs that look alike come from different tables or passages of the source.

Chain of CDK5/p25 (Q00535 whole entry, species assumed, the tested form may be a part): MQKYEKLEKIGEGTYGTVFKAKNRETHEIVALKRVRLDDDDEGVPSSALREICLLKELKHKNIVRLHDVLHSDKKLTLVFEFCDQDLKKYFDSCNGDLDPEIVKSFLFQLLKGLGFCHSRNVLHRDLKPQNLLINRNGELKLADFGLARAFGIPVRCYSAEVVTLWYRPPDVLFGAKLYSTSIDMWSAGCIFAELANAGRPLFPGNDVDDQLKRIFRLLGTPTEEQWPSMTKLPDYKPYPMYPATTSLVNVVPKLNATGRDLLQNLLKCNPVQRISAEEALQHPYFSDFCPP
Chain of CDK5/p25 (Q15078 99-307 partner limits assumed, species assumed): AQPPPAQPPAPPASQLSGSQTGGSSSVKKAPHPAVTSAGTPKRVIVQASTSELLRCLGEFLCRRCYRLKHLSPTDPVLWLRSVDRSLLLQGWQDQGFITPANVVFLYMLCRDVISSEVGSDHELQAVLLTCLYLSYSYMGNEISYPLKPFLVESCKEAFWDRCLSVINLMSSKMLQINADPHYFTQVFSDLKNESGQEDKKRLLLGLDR

Consider `c1coc(-c2cc3nccnc3[nH]2)c1` [1 (RP19), 6-(2-Furyl)[5H]pyrrolo[2,3-b]pyrazine], for which the melting point worked out at 232.6 °C. This molecule gave an IC50 in data set [1] of 9300 nM. Moreover, 12000 nM corresponded to half-maximal inhibition in data set [2] (IC50). The IC50 in data set [3] (15 μM ATP, Table 1) is 15000 nM.
On to `c1ccc2c(-c3cc4nccnc4[nH]3)cccc2c1` [6 (RP17), 6-(1-Naphtyl) [5H]pyrrolo[2,3-b]pyrazine], for which the melting point turned out to be 216.4 °C. This molecule yielded an IC50 in data set [2] above 100000 nM. In data set [3] (15 μM ATP, Table 1), the IC50 was 27000 nM.
The corresponding values for `Cc1cnc2cc(-c3ccccc3)[nH]c2n1` [8 (RP18), 3-Methyl-6-phenyl[5H]pyrrolo[2,3-b]pyrazine] are 261.8 °C, 69000 nM and above 100000 nM.
`Clc1ccc(C2(c3cc4nccnc4[nH]3)CC2)cc1` [9 (RP124), 6-[1-(4-Chlorophenyl)-1-cyclopropyl][5H]pyrrolo[2,3-b]pyrazine] returned a melting point of 189.7 °C. The molecule further showed an IC50 in data set [2] of 30000 nM. Further, the IC50 in data set [3] (15 μM ATP, Table 1) is 1000 nM.
In turn, `COc1ccccc1-c1cc2nccnc2[nH]1` [10 (RP9), 6-(2-Methoxyphenyl)[5H]pyrrolo[2,3-b]pyrazine] showed a melting point of 156.9 °C. Also, in data set [2], the IC50 came to 20000 nM. Further, the IC50 in data set [3] (15 μM ATP, Table 1) was found to be 3300 nM.
`COc1cccc(-c2cc3nccnc3[nH]2)c1` [12 (RP10), 6-(3-Methoxyphenyl)[5H]pyrrolo[2,3-b]pyrazine]: the melting point is 195.7 °C. Half-maximal inhibition in data set [2] (IC50) was put at 13000 nM. Further, the IC50 in data set [3] (15 μM ATP, Table 1) amounted to 3200 nM.
In the case of `Br.Oc1cccc(-c2cc3nccnc3[nH]2)c1` [13 (RP134), 6-(3-Hydroxyphenyl)[5H]pyrrolo[2,3-b]pyrazine hydrobromide], the melting point is 258 °C (dec.). Further, in data set [2], the IC50 is 2500 nM.
In the case of `Br.Oc1ccc(-c2cc3nccnc3[nH]2)cc1` [15 (RP26), 6-(4-Hydroxyphenyl) [5H]pyrrolo[2,3-b]pyrazine hydrobromide], the melting point is 255 °C (dec.). Further, inhibition in data set [2] was half-maximal at 1200 nM (IC50). The IC50 in data set [3] turned out to be 1200 nM.
Regarding `COc1cc(OC)cc(-c2cc3nccnc3[nH]2)c1` [16 (RP21), 6-(3,5-Dimethoxyphenyl)[5H]pyrrolo[2,3-b]pyrazine], the melting point was 216.7 °C. The same molecule showed an IC50 in data set [1] above 100000 nM. Also, in data set [3] (15 μM ATP, Table 1), the IC50 was 60000 nM.
In turn, `COc1cc(-c2cc3nccnc3[nH]2)cc(OC)c1OC` [17 (RP16), 6-(3,4,5-Trimethoxyphenyl)[5H]pyrrolo[2,3-b]pyrazine] yielded a melting point of 231.7 °C. In data set [1], this molecule displayed an IC50 above 100000 nM. Also, in data set [3] (15 μM ATP, Table 1), the IC50 came out at 85000 nM.
Regarding `Fc1ccc(-c2cc3nccnc3[nH]2)cc1` [18 (RP76), 6-(4-Fluorophenyl)[5H]pyrrolo[2,3-b]pyrazine], the melting point was 244 °C (dec.). Also, in data set [2], the IC50 amounted to 2300 nM. Further, the IC50 in data set [3] (15 μM ATP, Table 1) turned out to be 1900 nM.
Regarding `Clc1ccc(-c2cc3nccnc3[nH]2)cc1` [19 (RP14), 6-(4-Chlorophenyl)[5H]pyrrolo[2,3-b]pyrazine], the melting point was 250 °C (dec.). Besides, inhibition in data set [2] was half-maximal at 1800 nM (IC50).
Turning to `Brc1ccc(-c2cc3nccnc3[nH]2)cc1` [21 (RP77), 6-(4-Bromophenyl) [5H]pyrrolo[2,3-b]pyrazine], the melting point was 256 °C (dec.). The molecule further showed an IC50 in data set [1] above 100000 nM. The IC50 in data set [3] (15 μM ATP, Table 1) came to 6000 nM.
As to `N#Cc1ccc(-c2cc3nccnc3[nH]2)cc1` [23 (RP20), 6-(4-Cyanophenyl) [5H]pyrrolo[2,3-b]pyrazine], the melting point was 340 °C (dec.). In data set [2], the IC50 was found to be 3000 nM. In data set [3] (15 μM ATP, Table 1), the IC50 was determined as 4800 nM.
Take `Cc1ccc(-c2cc3nccnc3[nH]2)cc1` [24 (RP78), 6-(4-Methylphenyl)[5H]pyrrolo[2,3-b]pyrazine]: the melting point is 265.4 °C. The molecule also had an IC50 in data set [2] of 3000 nM. Besides, in data set [3] (15 μM ATP, Table 1), the IC50 was 2600 nM.
As to `COc1ccc(-c2[nH]c3nccnc3c2C)cc1` [27 (RP95), 6-(4-Methoxyphenyl)-7-methyl[5H]pyrrolo[2,3-b]pyrazine], the melting point came out at 221.6 °C. In data set [2], the IC50 came out at 300 nM. Also, the IC50 in data set [3] (15 μM ATP, Table 1) amounted to 460 nM.
In the case of `Br.Cc1c(-c2ccc(O)cc2)[nH]c2nccnc12` [28 (RP96), 6-(4-Hydroxyphenyl)-7-methyl[5H]pyrrolo[2,3-b]pyrazine hydrobromide], the melting point is 262 °C (dec.). The IC50 in data set [2] was 250 nM. The IC50 in data set [3] (15 μM ATP, Table 1) was found to be 520 nM.
`COc1ccc(-c2[nH]c3nccnc3c2C)cc1OC` [29 (RP123), 6-(3,4-Methoxyphenyl)-7-methyl[5H]pyrrolo[2,3-b]pyrazine] had a melting point of 230.2 °C. In data set [2], this molecule gave an IC50 of 1100 nM. For the same molecule, in data set [3] (15 μM ATP, Table 1), the IC50 was 2000 nM.
Take `Cc1c(-c2ccc(Cl)cc2)[nH]c2nccnc12` [30 (RP80), 6-(4-Chlorophenyl)-7-methyl[5H]pyrrolo[2,3-b]pyrazine]: the melting point was 260 °C (dec.). In addition, the IC50 in data set [3] (15 μM ATP, Table 1) was found to be 1700 nM.
On to `Cc1c(-c2ccc(OS(=O)(=O)N(C)C)cc2)[nH]c2nccnc12` [31 (RP125), 6-(4-Dimethylaminosulfamoyloxyphenyl)-7-methyl[5H]pyrrolo[2,3-b]pyrazine], for which the IC50 was 900 nM in data set [1]; 700 nM in data set [2]; 500 nM in data set [3] (15 μM ATP, Table 1).
Take `CCCc1c(-c2ccc(OC)cc2)[nH]c2nccnc12` [32 (RP127)]: the melting point was determined as 188.5 °C. In data set [2], this molecule registered an IC50 of 400 nM. For the same molecule, in data set [3] (15 μM ATP, Table 1), the IC50 turned out to be 400 nM.
As for `Br.CCCc1c(-c2ccc(O)cc2)[nH]c2nccnc12` [33 (RP132), 6-(4-Hydroxyphenyl)-7-propyl[5H]pyrrolo[2,3-b]pyrazine hydrobromide], the melting point is 244 °C (dec.). Moreover, the IC50 in data set [2] was 25000 nM. In addition, the IC50 in data set [3] (15 μM ATP, Table 1) was determined as 1800 nM.
Molecule `C=CCc1c(-c2ccc(OC)cc2)[nH]c2nccnc12` [34 (RP110), 7-Allyl-6-(4-methoxyphenyl)[5H]pyrrolo[2,3-b]pyrazine] gave a melting point of 193.8 °C. For the same molecule, the IC50 in data set [2] was 1000 nM. Also, the IC50 in data set [3] (15 μM ATP, Table 1) turned out to be 600 nM.
Take `COc1ccc(-c2[nH]c3nccnc3c2CCCCl)cc1` [35 (RP126), 7-(3-Chloropropyl)-6-(4-methoxyphenyl)[5H]pyrrolo[2,3-b]pyrazine]: the melting point was 178 °C (dec.). In data set [3] (15 μM ATP, Table 1), the IC50 came out at 2500 nM.
The corresponding values for `COc1ccc(-c2[nH]c3nccnc3c2C(C)C)cc1` [36 (RP102), 7-Isopropyl-6-(4-methoxyphenyl)[5H]pyrrolo[2,3-b]pyrazine] are 204.8 °C and 500 nM.
`CC(C)c1c(-c2ccc(Cl)cc2)[nH]c2nccnc12` [37 (RP90), 6-(4-Chlorophenyl)-7-isopropyl[5H]pyrrolo[2,3-b]pyrazine] showed a melting point of 208.6 °C. This molecule registered an IC50 in data set [2] of 850 nM. In data set [3] (15 μM ATP, Table 1), the IC50 was 750 nM.
With `CCCCc1c(-c2ccc(OC)cc2)[nH]c2nccnc12` [38 (RP106), 7-n-Butyl-6-(4-methoxyphenyl)[5H]pyrrolo[2,3-b]pyrazine], the IC50 in data set [3] (15 μM ATP, Table 1) is 920 nM.
In the case of `COc1ccc(-c2c(C)c3nccnc3n2C2CC2)cc1` [42 (RP104), 6-(4-Methoxyphenyl)-7-methylcyclopropyl[5H]pyrrolo[2,3-b]pyrazine], the IC50 in data set [1] is above 100000 nM; in data set [2], 1000 nM; in data set [3] (15 μM ATP, Table 1), 1100 nM.
`Oc1ccc(-c2[nH]c3nccnc3c2CC2CC2)cc1` [43 (RP112), 6-(4-Hydroxyphenyl)-7-methylcyclopropyl[5H]pyrrolo[2,3-b]pyrazine hydrobromide]: the IC50 in data set [1] was above 100000 nM; in data set [2], 50000 nM; in data set [3] (15 μM ATP, Table 1), 3000 nM.
`Clc1ccc(-c2[nH]c3nccnc3c2Cc2ccccc2)cc1` [45 (RP91), 7-Benzyl-6-(4-chlorophenyl)[5H]pyrrolo[2,3-b]pyrazine] had a melting point of 266.3 °C. Also, the IC50 in data set [1] was above 100000 nM. The IC50 in data set [3] (15 μM ATP, Table 1) is 6800 nM.
As to `COc1ccc(-c2c(C)c3nccnc3n2C2CCCCC2)cc1` [46 (RP98), 6-(4-Methoxyphenyl)-7-methylcyclohexyl[5H]pyrrolo[2,3-b]pyrazine], the IC50 is above 100000 nM in data set [1]; 5000 nM in data set [2]; 6800 nM in data set [3] (15 μM ATP, Table 1).
Take `Cc1c(-c2ccc(Cl)cc2)n(C2CCCCC2)c2nccnc12` [47 (RP99), 6-(4-Chlorophenyl)-7-methylcyclohexyl[5H]pyrrolo[2,3-b]pyrazine]: the IC50 in data set [1] was above 100000 nM; in data set [2] it was 10000 nM; in data set [3] (15 μM ATP, Table 1) it was 8000 nM.
Consider `Cn1c(-c2ccccc2)cc2nccnc21` [48 (RP22)], for which the IC50 in data set [1] was 7000 nM; in data set [3] (15 μM ATP, Table 1), above 100000 nM.
Regarding `Cc1c(C2(c3ccc(Cl)cc3)CC2)[nH]c2nccnc12` [49 (RP130)], in data set [3] (15 μM ATP, Table 1), the IC50 is 18000 nM.
